From patent US6951943B2, “Process for the preparation of phenylalanine enamide derivatives” (Celltech R & D Limited, priority 2002, dated 2005) come the findings set out here.

In general, melting point refers to the temperature of the solid-liquid transition. Consider `CCOC(=O)[C@H](Cc1ccc(Nc2nccc3ccncc23)cc1)NC1=CC(=O)C12CCOCC2` [Example 9, Ethyl 3-[4-([2,7]naphthyridin-1-ylamino)phenyl]-2(S)-[(3-oxo-7-oxa-spiro[3.5]non-1-en-1-yl)amino]propanoate], for which the melting point was determined as 112 °C. As for `CCOC(=O)[C@H](Cc1ccc(NC(=O)c2c(Cl)cncc2Cl)cc1)NC1=CC(=O)C12CCCCC2` [Example 1, Ethyl 2(S)-[(3-oxospiro[3.5]non-1-en-1-yl)amino]-3-{4-[(3,5-dichloroisonicotinoyl)amino]phenyl}propanoate], the figure is 194 °C; as for `CCOC(=O)[C@H](Cc1ccc(Nc2nccc3ccncc23)cc1)NC1=C(SC(C)C)C(=O)C12CCOCC2` [Example 10, Ethyl 2(S)-[(2-isopropylsulfanyl-3-oxo-7-oxa-spiro[3.5]non-1-en-1-yl)amino]-3-[4-([2,7]naphthyridin-1-ylamino)phenyl]propanoate], 221 °C.
